Values quoted from earlier work as cited in article PMC9574858, “Linker-Dependent Folding Rationalizes PROTAC Cell Permeability” (Journal of Medicinal Chemistry, 2022).

Molecular target: CRBN (Homo sapiens, UniProt Q96SW2)
Design: method as in PMID 29358579

CRBN, sequence (Q96SW2 whole entry): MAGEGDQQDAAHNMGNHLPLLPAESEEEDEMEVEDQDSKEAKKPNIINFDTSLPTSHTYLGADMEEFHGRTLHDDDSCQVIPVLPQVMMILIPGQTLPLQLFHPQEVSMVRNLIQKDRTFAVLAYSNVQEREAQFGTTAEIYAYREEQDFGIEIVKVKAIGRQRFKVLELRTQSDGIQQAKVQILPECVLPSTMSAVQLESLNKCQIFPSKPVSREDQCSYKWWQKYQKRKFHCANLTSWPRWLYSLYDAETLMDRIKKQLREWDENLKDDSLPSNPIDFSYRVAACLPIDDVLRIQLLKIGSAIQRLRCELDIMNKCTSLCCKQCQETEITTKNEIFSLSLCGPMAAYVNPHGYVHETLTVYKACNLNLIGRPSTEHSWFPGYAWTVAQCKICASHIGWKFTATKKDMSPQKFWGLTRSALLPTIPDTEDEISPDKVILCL

O=C1CC[C@H](N2C(=O)c3ccccc3C2=O)C(=O)N1 [S-form of thalidomide, thalidomide]
affinity for CRBN compared with the R-form: 1 order of magnitude higher
